Experiments:
ABUTH = test: Post-emergence herbicidal action against ABUTH; format: in vivo, Abutilon theophrasti; settings: application rate 80 g/ha, rated visually about 3 weeks after treatment
Description: (§1) [table] 2. Post-emergence herbicidal action against harmful plants and crop plant compatibility Seeds of monocotyledonous and dicotyledonous weeds and crop plants are placed in sandy loam in plastic or wood-fibre pots, covered with soil and cultivated in a greenhouse under controlled growth conditions. 2 to 3 weeks after sowing, the test plants are treated at the one-leaf stage. The compounds of the invention, formulated in the form of wettable powders (WP) or as emulsion concentrates (EC), are then sprayed onto the green parts of the plants as aqueous suspension or emulsion with addition of 0.5% additive at a water application rate of 600 l/ha (converted). After the test plants have been kept in the greenhouse under optimum growth conditions for about 3 weeks, the activity of the preparations is rated visually in comparison to untreated controls. For example, 100% activity=the plants have died, 0% activity=like control plants.

PHBPU = test: Post-emergence herbicidal action against PHBPU; format: in vivo, Pharbitis purpurea; settings: application rate 80 g/ha, rated visually about 3 weeks after treatment
Description: as §1

AMARE = test: Post-emergence herbicidal action against AMARE; format: in vivo, Amaranthus retroflexus; settings: application rate 80 g/ha, rated visually about 3 weeks after treatment
Description: as §1

HORMU = test: Post-emergence herbicidal action against HORMU; format: in vivo, Hordeum murinum; settings: application rate 80 g/ha
Description: as §1

AVEFA = test: Post-emergence herbicidal action against AVEFA; format: in vivo, Avena fatua; settings: application rate 80 g/ha, rated visually after about 3 weeks
Description: as §1

ECHCG = test: Post-emergence herbicidal action against ECHCG; format: in vivo, Echinochloa crus-galli; settings: application rate 80 g/ha, rated visually after about 3 weeks
Description: as §1

SETVI = test: Post-emergence herbicidal action against SETVI; format: in vivo, Setaria viridis; settings: application rate 80 g/ha, rated visually after about 3 weeks
Description: as §1

STEME = test: Post-emergence herbicidal action against STEME; format: in vivo, Stellaria media; settings: application rate 80 g/ha, rated visually about 3 weeks after treatment
Description: as §1

LOLRI = test: Post-emergence herbicidal action against LOLRI; format: in vivo, Lolium rigidum; settings: application rate 80 g/ha, rated visually after about 3 weeks
Description: as §1

ALOMY = test: Post-emergence herbicidal action against ALOMY; format: in vivo, Alopecurus myosuroides; settings: application rate 80 g/ha, rated visually after about 3 weeks
Description: as §1

VERPE = test: Post-emergence herbicidal action against VERPE; format: in vivo, Veronica persica; settings: application rate 80 g/ha
Description: as §1

VIOTR = test: Post-emergence herbicidal action against VIOTR; format: in vivo, Viola tricolor; settings: application rate 80 g/ha, rated visually about 3 weeks after treatment
Description: as §1

POLCO = test: Post-emergence herbicidal action against POLCO; format: in vivo, Polygonum convolvulus; settings: application rate 80 g/ha, rated visually about 3 weeks after treatment
Description: as §1

COc1cc(OC)cc(C2=NOC(C(=O)NC3C=CC(C(=O)OCCCl)C3)(C(F)(F)F)C2)c1 (mixture of isomers) [Example I-044]
80%: Herbicidal action against [%] PHBPU (PHBPU) | Herbicidal action against [%] AMARE (AMARE) | Herbicidal action against [%] AVEFA (AVEFA)
100%: Herbicidal action against [%] HORMU (HORMU)
90%: Herbicidal action against [%] ABUTH (ABUTH) | Herbicidal action against [%] ECHCG (ECHCG)

O=C(OCCCl)C1C=CC(NC(=O)C2(C(F)(F)F)CC(c3cccc(Cl)c3)=NO2)C1 (mixture of isomers) [Example I-045]
100%: Herbicidal action against [%] ALOMY (ALOMY)
80%: Herbicidal action against [%] ABUTH (ABUTH) | Herbicidal action against [%] SETVI (SETVI) | Herbicidal action against [%] PHBPU (PHBPU) | Herbicidal action against [%] STEME (STEME) | Herbicidal action against [%] LOLRI (LOLRI) | Herbicidal action against [%] ECHCG (ECHCG)
90%: Herbicidal action against [%] HORMU (HORMU) | Herbicidal action against [%] AVEFA (AVEFA)

O=C(OCC(F)(F)F)C1C=CC(NC(=O)C2(C(F)(F)F)CC(c3cccc(Cl)c3)=NO2)C1 (mixture of isomers) [Example I-051]
80%: Herbicidal action against [%] ABUTH (ABUTH) | Herbicidal action against [%] PHBPU (PHBPU) | Herbicidal action against [%] VERPE (VERPE) | Herbicidal action against [%] ECHCG (ECHCG)
90%: Herbicidal action against [%] STEME (STEME) | Herbicidal action against [%] LOLRI (LOLRI) | Herbicidal action against [%] HORMU (HORMU) | Herbicidal action against [%] AVEFA (AVEFA)
100%: Herbicidal action against [%] ALOMY (ALOMY)

Cc1cc(C)cc(C2=NOC(C(=O)NC3C=CC(C(=O)OCC(F)(F)F)C3)(C(F)(F)F)C2)c1 (mixture of isomers) [Example I-057]
80%: Herbicidal action against [%] VIOTR (VIOTR) | Herbicidal action against [%] STEME (STEME) | Herbicidal action against [%] HORMU (HORMU) | Herbicidal action against [%] VERPE (VERPE) | Herbicidal action against [%] POLCO (POLCO) | Herbicidal action against [%] ECHCG (ECHCG)
90%: Herbicidal action against [%] LOLRI (LOLRI) | Herbicidal action against [%] ALOMY (ALOMY)

CC1(C(=O)NC2C=CC(C(=O)O)C2)CC(c2cccc(C#N)c2)=NO1 (mixture of isomers) [Example I-070]
90%: Herbicidal action against [%] SETVI (SETVI) | Herbicidal action against [%] AMARE (AMARE) | Herbicidal action against [%] HORMU (HORMU) | Herbicidal action against [%] ALOMY (ALOMY) | Herbicidal action against [%] POLCO (POLCO) | Herbicidal action against [%] ECHCG (ECHCG)
80%: Herbicidal action against [%] ABUTH (ABUTH) | Herbicidal action against [%] PHBPU (PHBPU) | Herbicidal action against [%] STEME (STEME) | Herbicidal action against [%] LOLRI (LOLRI) | Herbicidal action against [%] VERPE (VERPE)
100%: Herbicidal action against [%] AVEFA (AVEFA)

CCOC(=O)C1C=CC(NC(=O)C2(C)CC(c3cc(F)cc(C#N)c3)=NO2)C1 (mixture of isomers) [Example I-073]
80%: Herbicidal action against [%] ABUTH (ABUTH) | Herbicidal action against [%] SETVI (SETVI) | Herbicidal action against [%] PHBPU (PHBPU) | Herbicidal action against [%] AMARE (AMARE) | Herbicidal action against [%] VERPE (VERPE)
90%: Herbicidal action against [%] STEME (STEME) | Herbicidal action against [%] HORMU (HORMU) | Herbicidal action against [%] ALOMY (ALOMY) | Herbicidal action against [%] POLCO (POLCO)
100%: Herbicidal action against [%] LOLRI (LOLRI) | Herbicidal action against [%] AVEFA (AVEFA) | Herbicidal action against [%] ECHCG (ECHCG)

COCCOC(=O)C1C=CC(NC(=O)C2(C(F)(F)F)CC(c3cccc(C#N)c3)=NO2)C1 (mixture of isomers) [Example I-086]
100%: Herbicidal action against [%] HORMU (HORMU)
80%: Herbicidal action against [%] PHBPU (PHBPU) | Herbicidal action against [%] STEME (STEME) | Herbicidal action against [%] POLCO (POLCO)
90%: Herbicidal action against [%] ABUTH (ABUTH) | Herbicidal action against [%] SETVI (SETVI) | Herbicidal action against [%] LOLRI (LOLRI) | Herbicidal action against [%] AMARE (AMARE) | Herbicidal action against [%] AVEFA (AVEFA) | Herbicidal action against [%] ALOMY (ALOMY) | Herbicidal action against [%] VERPE (VERPE) | Herbicidal action against [%] ECHCG (ECHCG)

C=CC1(C(=O)NC2C=CC(C(=O)NC(C(=O)OC)C(C)C)C2)CC(c2cc(F)cc(F)c2)=NO1 (single isomer, unassigned) [II-26]
90%: Herbicidal action against [%] STEME (STEME) | Herbicidal action against [%] AMARE (AMARE) | Herbicidal action against [%] AVEFA (AVEFA)
80%: Herbicidal action against [%] ABUTH (ABUTH) | Herbicidal action against [%] SETVI (SETVI) | Herbicidal action against [%] PHBPU (PHBPU) | Herbicidal action against [%] VERPE (VERPE) | Herbicidal action against [%] POLCO (POLCO) | Herbicidal action against [%] ECHCG (ECHCG)
100%: Herbicidal action against [%] LOLRI (LOLRI) | Herbicidal action against [%] HORMU (HORMU) | Herbicidal action against [%] ALOMY (ALOMY)

CC(C)(C)OC(=O)[C@@H]1C=C[C@H](NC(=O)C2(C)CC(c3cc(F)cc(F)c3)=NO2)C1 (some centres unmarked) [Example I-007]
80%: Herbicidal action against [%] ABUTH (ABUTH) | Herbicidal action against [%] POLCO (POLCO)
90%: Herbicidal action against [%] SETVI (SETVI) | Herbicidal action against [%] PHBPU (PHBPU) | Herbicidal action against [%] STEME (STEME) | Herbicidal action against [%] LOLRI (LOLRI) | Herbicidal action against [%] HORMU (HORMU) | Herbicidal action against [%] AVEFA (AVEFA) | Herbicidal action against [%] ALOMY (ALOMY) | Herbicidal action against [%] VERPE (VERPE) | Herbicidal action against [%] ECHCG (ECHCG)

CC1(C(=O)N[C@H]2C=C[C@@H](C(=O)OCC(F)(F)F)C2)CC(c2cc(F)cc(F)c2)=NO1 (some centres unmarked) [Example I-010]
90%: Herbicidal action against [%] SETVI (SETVI) | Herbicidal action against [%] PHBPU (PHBPU) | Herbicidal action against [%] LOLRI (LOLRI) | Herbicidal action against [%] AMARE (AMARE) | Herbicidal action against [%] HORMU (HORMU) | Herbicidal action against [%] AVEFA (AVEFA) | Herbicidal action against [%] ALOMY (ALOMY) | Herbicidal action against [%] VERPE (VERPE) | Herbicidal action against [%] POLCO (POLCO) | Herbicidal action against [%] ECHCG (ECHCG)
80%: Herbicidal action against [%] ABUTH (ABUTH) | Herbicidal action against [%] STEME (STEME)

CCOC(=O)[C@@H]1C=C[C@H](NC(=O)C2(C(F)(F)F)CC(c3ccccc3)=NO2)C1 (some centres unmarked) [Example I-021]
80%: Herbicidal action against [%] ABUTH (ABUTH) | Herbicidal action against [%] PHBPU (PHBPU) | Herbicidal action against [%] STEME (STEME) | Herbicidal action against [%] VERPE (VERPE) | Herbicidal action against [%] ECHCG (ECHCG)
100%: Herbicidal action against [%] AVEFA (AVEFA)
90%: Herbicidal action against [%] SETVI (SETVI) | Herbicidal action against [%] LOLRI (LOLRI) | Herbicidal action against [%] AMARE (AMARE) | Herbicidal action against [%] HORMU (HORMU) | Herbicidal action against [%] ALOMY (ALOMY) | Herbicidal action against [%] POLCO (POLCO)

Cc1cc(Cl)cc(C2=NOC(C(=O)N[C@H]3C=C[C@@H](C(=O)OCC(F)(F)F)C3)(C(F)(F)F)C2)c1 (some centres unmarked) [Example I-029]
80%: Herbicidal action against [%] SETVI (SETVI) | Herbicidal action against [%] VIOTR (VIOTR) | Herbicidal action against [%] HORMU (HORMU) | Herbicidal action against [%] AVEFA (AVEFA) | Herbicidal action against [%] POLCO (POLCO)
90%: Herbicidal action against [%] LOLRI (LOLRI) | Herbicidal action against [%] AMARE (AMARE) | Herbicidal action against [%] ALOMY (ALOMY) | Herbicidal action against [%] VERPE (VERPE)

C=C[C@]1(C(=O)N[C@H]2C=C[C@H](C(=O)OC)C2)CC(c2cc(F)cc(F)c2)=NO1 [Example I-054]
90%: Herbicidal action against [%] HORMU (HORMU) | Herbicidal action against [%] ALOMY (ALOMY) | Herbicidal action against [%] VERPE (VERPE) | Herbicidal action against [%] ECHCG (ECHCG)
80%: Herbicidal action against [%] SETVI (SETVI) | Herbicidal action against [%] PHBPU (PHBPU) | Herbicidal action against [%] STEME (STEME) | Herbicidal action against [%] AMARE (AMARE) | Herbicidal action against [%] POLCO (POLCO)
100%: Herbicidal action against [%] LOLRI (LOLRI) | Herbicidal action against [%] AVEFA (AVEFA)

C=CC1(C(=O)NC2C=CC(C(=O)N3CCCO3)C2)CC(c2cc(F)cc(F)c2)=NO1 (centres unmarked) [II-28]
80%: Herbicidal action against [%] SETVI (SETVI) | Herbicidal action against [%] AMARE (AMARE) | Herbicidal action against [%] HORMU (HORMU) | Herbicidal action against [%] AVEFA (AVEFA) | Herbicidal action against [%] POLCO (POLCO)
90%: Herbicidal action against [%] ABUTH (ABUTH) | Herbicidal action against [%] PHBPU (PHBPU) | Herbicidal action against [%] STEME (STEME) | Herbicidal action against [%] LOLRI (LOLRI) | Herbicidal action against [%] VERPE (VERPE) | Herbicidal action against [%] ECHCG (ECHCG)
100%: Herbicidal action against [%] ALOMY (ALOMY)

CC(C)(NC(=O)C1C=CC(NC(=O)C2(C(F)(F)F)CC(c3cc(F)cc(F)c3)=NO2)C1)C(F)(F)F (centres unmarked) [II-38]
80%: Herbicidal action against [%] VIOTR (VIOTR)
90%: Herbicidal action against [%] AMARE (AMARE)

C=CC1(C(=O)N[C@H]2CC=C(C(=O)OC(C)C)C2)CC(c2cc(F)cc(F)c2)=NO1 (some centres unmarked) [III-13]
80%: Herbicidal action against [%] ABUTH (ABUTH) | Herbicidal action against [%] SETVI (SETVI) | Herbicidal action against [%] VERPE (VERPE) | Herbicidal action against [%] POLCO (POLCO)
90%: Herbicidal action against [%] PHBPU (PHBPU) | Herbicidal action against [%] STEME (STEME) | Herbicidal action against [%] AMARE (AMARE) | Herbicidal action against [%] HORMU (HORMU) | Herbicidal action against [%] AVEFA (AVEFA) | Herbicidal action against [%] ALOMY (ALOMY) | Herbicidal action against [%] ECHCG (ECHCG)
100%: Herbicidal action against [%] LOLRI (LOLRI)

From patent US12319664B2, “Herbicidally active 3-phenylisoxazoline-5-carboxamides of cyclopentenylcarboxylic acid derivatives” (Bayer Aktiengesellschaft, priority 2018, dated 2025)
